Columns and labels:
[1] = target: T1, 5-hydroxytryptamine receptor 2C (Homo sapiens, UniProt P28335); experiment: Binding affinity for human cloned 5-hydroxytryptamine 2C receptor expressed in CHO cells using [3H]mesulergine as radioligand; format: cell-based
T1 sequence (P28335 whole entry): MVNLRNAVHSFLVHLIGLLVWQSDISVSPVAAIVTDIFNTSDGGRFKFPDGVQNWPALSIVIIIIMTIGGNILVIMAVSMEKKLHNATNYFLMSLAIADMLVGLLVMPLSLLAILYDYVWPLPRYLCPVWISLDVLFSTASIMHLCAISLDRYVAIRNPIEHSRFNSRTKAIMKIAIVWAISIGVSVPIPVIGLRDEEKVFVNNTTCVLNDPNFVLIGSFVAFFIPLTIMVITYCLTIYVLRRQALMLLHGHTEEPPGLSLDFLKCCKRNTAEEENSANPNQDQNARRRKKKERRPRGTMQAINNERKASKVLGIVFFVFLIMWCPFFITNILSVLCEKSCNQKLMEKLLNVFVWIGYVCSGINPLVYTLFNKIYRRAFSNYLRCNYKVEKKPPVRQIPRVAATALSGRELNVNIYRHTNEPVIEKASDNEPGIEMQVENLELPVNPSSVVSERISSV

[2] = target: 5-hydroxytryptamine receptor 2A (Homo sapiens, UniProt P28223); experiment: biochemical; format: cell-based, L929
Description: Binding affinity for human cloned 5-hydroxytryptamine 2A receptor expressed in L929 cells using [125I]R91150 as radioligand

[3] = target: T2, 5-hydroxytryptamine receptor 2C (Rattus norvegicus) (UniProt P08909); experiment: In vivo activity in rat mCPP challenge test following p.o. administration.; format: functional, organism-based
T2 sequence (whole entry): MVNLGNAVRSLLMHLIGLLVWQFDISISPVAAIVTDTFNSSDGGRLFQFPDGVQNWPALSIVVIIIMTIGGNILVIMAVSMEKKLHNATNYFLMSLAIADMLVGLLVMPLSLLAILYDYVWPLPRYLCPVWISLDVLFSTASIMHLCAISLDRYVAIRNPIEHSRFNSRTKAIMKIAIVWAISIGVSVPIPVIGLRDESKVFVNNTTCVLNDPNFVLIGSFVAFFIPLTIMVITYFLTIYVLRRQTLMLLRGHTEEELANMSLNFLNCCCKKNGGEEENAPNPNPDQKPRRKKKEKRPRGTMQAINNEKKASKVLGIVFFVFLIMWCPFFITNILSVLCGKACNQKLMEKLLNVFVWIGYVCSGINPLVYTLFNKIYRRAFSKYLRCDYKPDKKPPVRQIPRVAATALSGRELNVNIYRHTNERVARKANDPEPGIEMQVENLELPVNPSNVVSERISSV

Rattus norvegicus = experiment: In vivo activity in mCPP challenge test were performed in male Wistar rats by subcutaneous administration; format: functional
Histamine H1 receptor = Histamine H1 receptor (Homo sapiens, UniProt P35367); experiment: Binding affinity for human cloned Histamine H1 receptor expressed in CHO cells using [3H]pyrilamine as radioligand; format: cell-based
[4] = target: T3, 5-hydroxytryptamine receptor 1A (Homo sapiens, UniProt P08908); experiment: Binding affinity for human cloned 5-hydroxytryptamine 1A receptor
T3 sequence (P08908 whole entry): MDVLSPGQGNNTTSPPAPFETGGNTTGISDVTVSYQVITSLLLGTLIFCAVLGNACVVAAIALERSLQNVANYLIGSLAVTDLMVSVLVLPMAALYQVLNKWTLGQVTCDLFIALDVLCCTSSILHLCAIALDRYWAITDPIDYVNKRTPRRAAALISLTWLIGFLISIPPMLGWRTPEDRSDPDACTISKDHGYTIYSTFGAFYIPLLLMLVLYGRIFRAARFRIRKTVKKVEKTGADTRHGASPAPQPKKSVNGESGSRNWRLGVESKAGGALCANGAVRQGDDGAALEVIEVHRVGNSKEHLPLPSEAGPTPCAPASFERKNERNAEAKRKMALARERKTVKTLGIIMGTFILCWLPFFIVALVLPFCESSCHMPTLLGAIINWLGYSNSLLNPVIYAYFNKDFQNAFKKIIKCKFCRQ

[5] = target: 5-hydroxytryptamine receptor 1D (Homo sapiens, UniProt P28221); experiment: Binding affinity for human cloned 5-hydroxytryptamine 1D receptor
[6] = target: Serotonin 3 (5-HT3) receptor; experiment: Binding affinity for human cloned 5-hydroxytryptamine 3 receptor; format: protein-complex assay
[7] = target: T4, Alpha-2A adrenergic receptor (Homo sapiens, UniProt P08913); experiment: Binding affinity for human cloned Alpha-2A adrenergic receptor
T4 sequence (P08913 whole entry): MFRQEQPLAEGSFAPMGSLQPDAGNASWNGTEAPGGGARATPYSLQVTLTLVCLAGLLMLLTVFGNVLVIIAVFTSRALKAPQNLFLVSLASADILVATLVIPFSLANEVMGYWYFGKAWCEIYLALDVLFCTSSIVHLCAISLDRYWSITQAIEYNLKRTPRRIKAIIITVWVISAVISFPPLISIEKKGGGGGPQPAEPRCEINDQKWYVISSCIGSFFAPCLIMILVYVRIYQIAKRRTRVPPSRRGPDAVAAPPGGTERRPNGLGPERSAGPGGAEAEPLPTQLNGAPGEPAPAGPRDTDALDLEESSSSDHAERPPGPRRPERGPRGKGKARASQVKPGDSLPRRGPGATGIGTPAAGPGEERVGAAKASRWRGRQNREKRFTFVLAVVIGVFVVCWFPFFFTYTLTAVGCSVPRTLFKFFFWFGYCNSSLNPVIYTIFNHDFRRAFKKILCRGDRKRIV

[8] = target: T5, Alpha-1A adrenergic receptor (Homo sapiens, UniProt P35348); experiment: Binding affinity for human cloned Alpha-1A adrenergic receptor
T5 sequence (P35348 whole entry): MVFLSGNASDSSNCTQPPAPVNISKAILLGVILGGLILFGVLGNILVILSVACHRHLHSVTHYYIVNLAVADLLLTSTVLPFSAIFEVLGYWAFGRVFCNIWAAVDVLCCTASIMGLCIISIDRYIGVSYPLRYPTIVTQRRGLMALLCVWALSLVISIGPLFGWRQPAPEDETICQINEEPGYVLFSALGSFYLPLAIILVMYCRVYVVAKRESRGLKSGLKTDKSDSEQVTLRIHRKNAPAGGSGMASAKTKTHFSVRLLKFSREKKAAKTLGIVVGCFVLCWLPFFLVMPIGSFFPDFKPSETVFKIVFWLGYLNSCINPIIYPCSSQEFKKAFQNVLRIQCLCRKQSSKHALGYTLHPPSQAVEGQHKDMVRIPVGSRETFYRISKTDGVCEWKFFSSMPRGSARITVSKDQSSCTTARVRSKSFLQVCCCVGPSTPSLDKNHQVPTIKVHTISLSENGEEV

[9] = target: T6, Alpha-2C adrenergic receptor (Homo sapiens, UniProt P18825); experiment: Binding affinity for human cloned Alpha-2C adrenergic receptor
T6 sequence (P18825 whole entry): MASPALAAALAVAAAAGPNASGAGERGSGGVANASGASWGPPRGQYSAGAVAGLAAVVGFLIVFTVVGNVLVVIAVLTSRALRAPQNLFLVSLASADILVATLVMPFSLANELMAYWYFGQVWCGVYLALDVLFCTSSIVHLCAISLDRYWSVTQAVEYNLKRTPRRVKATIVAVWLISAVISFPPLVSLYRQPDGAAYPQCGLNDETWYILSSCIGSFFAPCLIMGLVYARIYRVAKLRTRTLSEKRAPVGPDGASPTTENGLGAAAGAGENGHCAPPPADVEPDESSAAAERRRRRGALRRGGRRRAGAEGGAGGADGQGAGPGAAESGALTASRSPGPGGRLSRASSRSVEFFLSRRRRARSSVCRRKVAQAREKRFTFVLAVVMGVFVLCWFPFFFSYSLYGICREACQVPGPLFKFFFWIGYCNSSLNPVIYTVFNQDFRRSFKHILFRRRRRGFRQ

D(2) dopamine receptor [10] = target: D(2) dopamine receptor (Rattus norvegicus, UniProt P61169); experiment: Binding affinity for rat Dopamine receptor D2
D(3) dopamine receptor = D(3) dopamine receptor (Homo sapiens, UniProt P35462); experiment: Binding affinity for human cloned Dopamine receptor D3
D(2) dopamine receptor [11] = target: D(2) dopamine receptor (Homo sapiens, UniProt P14416); experiment: Binding affinity for human cloned Dopamine receptor D2L
D(4) dopamine receptor = target: T7, D(4) dopamine receptor (Homo sapiens, UniProt P21917); experiment: Binding affinity for human cloned Dopamine receptor D4
T7 sequence (P21917 whole entry): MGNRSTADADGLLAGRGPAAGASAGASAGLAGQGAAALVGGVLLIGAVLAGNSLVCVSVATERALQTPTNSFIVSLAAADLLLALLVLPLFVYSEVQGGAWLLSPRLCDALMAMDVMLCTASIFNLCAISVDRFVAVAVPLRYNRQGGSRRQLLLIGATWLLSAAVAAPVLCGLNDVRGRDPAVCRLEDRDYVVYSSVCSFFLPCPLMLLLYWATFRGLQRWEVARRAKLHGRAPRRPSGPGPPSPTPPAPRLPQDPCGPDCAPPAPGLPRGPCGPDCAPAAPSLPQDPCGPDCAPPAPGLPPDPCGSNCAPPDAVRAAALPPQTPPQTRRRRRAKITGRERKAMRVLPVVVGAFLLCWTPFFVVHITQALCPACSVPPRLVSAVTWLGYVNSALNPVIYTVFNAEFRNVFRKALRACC

[12] = Rattus norvegicus, sc, read-out: ED50

5-hydroxytryptamine receptor 2A, sequence (P28223 whole entry): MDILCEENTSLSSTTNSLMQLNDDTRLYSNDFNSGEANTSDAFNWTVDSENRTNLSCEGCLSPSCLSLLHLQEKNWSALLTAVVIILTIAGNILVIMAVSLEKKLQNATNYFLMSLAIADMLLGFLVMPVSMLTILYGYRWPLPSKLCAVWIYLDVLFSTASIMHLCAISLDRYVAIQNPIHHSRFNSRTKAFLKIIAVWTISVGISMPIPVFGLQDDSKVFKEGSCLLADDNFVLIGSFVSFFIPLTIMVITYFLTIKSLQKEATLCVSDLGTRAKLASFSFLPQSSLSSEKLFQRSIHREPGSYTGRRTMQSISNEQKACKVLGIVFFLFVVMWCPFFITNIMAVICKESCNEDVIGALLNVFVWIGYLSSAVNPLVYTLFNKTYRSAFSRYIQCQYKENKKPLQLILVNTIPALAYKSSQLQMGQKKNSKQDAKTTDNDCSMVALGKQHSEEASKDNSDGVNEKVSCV
Histamine H1 receptor, sequence (P35367 whole entry): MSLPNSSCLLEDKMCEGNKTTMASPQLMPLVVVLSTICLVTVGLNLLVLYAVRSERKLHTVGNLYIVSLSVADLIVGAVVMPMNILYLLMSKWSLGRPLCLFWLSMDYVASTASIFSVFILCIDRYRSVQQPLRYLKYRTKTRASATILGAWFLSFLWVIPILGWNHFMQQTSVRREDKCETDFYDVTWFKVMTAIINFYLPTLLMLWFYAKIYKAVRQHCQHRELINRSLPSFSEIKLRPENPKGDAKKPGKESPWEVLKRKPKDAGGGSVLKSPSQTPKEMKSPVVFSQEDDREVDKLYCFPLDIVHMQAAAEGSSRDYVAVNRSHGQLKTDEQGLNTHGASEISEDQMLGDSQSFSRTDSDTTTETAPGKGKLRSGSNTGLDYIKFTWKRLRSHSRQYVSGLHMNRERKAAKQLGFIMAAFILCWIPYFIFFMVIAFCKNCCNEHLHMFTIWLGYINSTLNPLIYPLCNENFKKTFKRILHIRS
5-hydroxytryptamine receptor 1D, sequence (P28221 whole entry): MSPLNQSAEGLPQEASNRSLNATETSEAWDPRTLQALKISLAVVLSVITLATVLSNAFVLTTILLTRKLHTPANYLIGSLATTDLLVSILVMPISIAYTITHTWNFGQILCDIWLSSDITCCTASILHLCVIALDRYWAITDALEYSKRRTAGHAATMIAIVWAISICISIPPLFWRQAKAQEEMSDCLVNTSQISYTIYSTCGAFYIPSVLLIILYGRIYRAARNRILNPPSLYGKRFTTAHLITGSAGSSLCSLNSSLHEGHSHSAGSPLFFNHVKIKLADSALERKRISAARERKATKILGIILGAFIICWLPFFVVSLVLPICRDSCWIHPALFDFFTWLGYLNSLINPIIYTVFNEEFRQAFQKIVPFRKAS
D(2) dopamine receptor (Homo sapiens, UniProt P14416), sequence (P14416 whole entry): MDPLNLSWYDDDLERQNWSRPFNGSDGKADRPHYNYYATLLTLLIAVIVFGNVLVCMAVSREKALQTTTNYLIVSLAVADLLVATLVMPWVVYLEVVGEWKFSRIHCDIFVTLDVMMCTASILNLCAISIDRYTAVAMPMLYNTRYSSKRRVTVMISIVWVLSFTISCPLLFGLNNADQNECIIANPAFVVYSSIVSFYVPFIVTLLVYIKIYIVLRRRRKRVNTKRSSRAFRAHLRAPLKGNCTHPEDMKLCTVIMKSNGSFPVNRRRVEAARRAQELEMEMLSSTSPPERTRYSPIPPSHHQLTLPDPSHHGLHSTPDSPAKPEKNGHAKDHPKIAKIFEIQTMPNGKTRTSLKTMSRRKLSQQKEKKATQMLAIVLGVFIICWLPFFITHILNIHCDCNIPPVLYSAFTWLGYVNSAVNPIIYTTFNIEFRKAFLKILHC
D(3) dopamine receptor, sequence (P35462 whole entry): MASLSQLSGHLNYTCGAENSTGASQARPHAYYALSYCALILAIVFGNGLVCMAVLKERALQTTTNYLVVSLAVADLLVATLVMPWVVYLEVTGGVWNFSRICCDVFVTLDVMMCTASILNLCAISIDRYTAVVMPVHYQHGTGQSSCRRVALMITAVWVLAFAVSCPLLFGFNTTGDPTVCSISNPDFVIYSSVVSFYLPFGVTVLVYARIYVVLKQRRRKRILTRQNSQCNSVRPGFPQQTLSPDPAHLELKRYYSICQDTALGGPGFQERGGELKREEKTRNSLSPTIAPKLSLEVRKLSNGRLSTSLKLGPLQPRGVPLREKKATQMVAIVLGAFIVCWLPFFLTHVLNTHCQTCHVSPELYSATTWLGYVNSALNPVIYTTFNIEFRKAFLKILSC
D(2) dopamine receptor (Rattus norvegicus, UniProt P61169), sequence (P61169 whole entry): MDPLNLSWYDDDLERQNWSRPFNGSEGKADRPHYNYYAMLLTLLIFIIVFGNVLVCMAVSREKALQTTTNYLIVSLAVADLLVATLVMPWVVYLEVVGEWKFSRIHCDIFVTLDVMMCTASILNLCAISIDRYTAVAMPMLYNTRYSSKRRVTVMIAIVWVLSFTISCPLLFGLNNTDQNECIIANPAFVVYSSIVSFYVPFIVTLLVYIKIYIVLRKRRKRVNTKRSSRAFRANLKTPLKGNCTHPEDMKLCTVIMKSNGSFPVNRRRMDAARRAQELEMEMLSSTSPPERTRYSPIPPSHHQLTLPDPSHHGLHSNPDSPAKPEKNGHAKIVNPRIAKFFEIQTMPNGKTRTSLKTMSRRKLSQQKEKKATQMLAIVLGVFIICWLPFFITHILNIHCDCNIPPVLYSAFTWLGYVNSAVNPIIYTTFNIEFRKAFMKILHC

| SMILES | IC50 [1] | IC50 [2] | ED50 [3] | IC50 (Histamine H1 receptor) | further results |
| --- | --- | --- | --- | --- | --- |
| CN1CCN(CC2CC3c4ccccc4Cc4ccccc4N3O2)CC1 (stereo not given) | > 1000 nM | 282 nM | > 2.5 mg/kg |  | ED50 (Rattus norvegicus; [12]): > 2.5 mg/kg |
| CN(C)CC1CC2c3ccccc3Cc3ccccc3N2O1 (trans isomer) | > 1000 nM | > 1000 nM |  | > 1000 nM | ED50 (Rattus norvegicus): >2.5 mg/kg |
| CN(C)CC1(C)CC2c3ccccc3Cc3ccccc3N2O1 (stereo in doubt; trans) [listing 1 of 2 here] | 933 nM | > 1000 nM |  | 61.7 nM | ED50 (Rattus norvegicus; [12]): > 2.5 mg/kg |
| CN(C)CC1CC2c3ccccc3Cc3ccccc3N2O1 (stereo in doubt; 2a) | 12.3 nM | 22.9 nM |  | 6.76 nM | IC50 [4]: 977 nM; IC50 [5]: 661 nM; pIC50 [6]: 5.92; IC50 [7]: 372 nM; IC50 [8]: 537 nM; IC50 [9]: 1860 nM; IC50 (D(2) dopamine receptor [10]): 195 nM; IC50 (D(3) dopamine receptor): 170 nM; ED50 (Rattus norvegicus): 0.04 mg/kg; IC50 (D(2) dopamine receptor [11]): 871 nM; IC50 (D(4) dopamine receptor): 132 nM |
| CN(C)CC1(C)CC2c3ccccc3Cc3ccccc3N2O1 (stereo in doubt; cis) [listing 1 of 2 here] | 13.8 nM | 57.5 nM |  | 1.66 nM |  |
| CN1CCN2c3ccccc3Cc3ccccc3C2C1 (stereo not given) [MIANSERIN] |  |  | 2.5 mg/kg |  | IC50 [5]: 380 nM; IC50 [9]: 42.7 nM; ED50 (Rattus norvegicus; [12]): 0.16 mg/kg; IC50 (D(2) dopamine receptor [11]): 7080 nM |
| c1ccc2c(c1)Cc1ccccc1N1OC(CN3CCNCC3)CC21 (stereo not given) | > 1000 nM | > 1000 nM | > 2.5 mg/kg | > 1000 nM |  |
| CN(C)CC1(C)CC2c3ccccc3Cc3ccccc3N2O1 (stereo in doubt; cis) [listing 2 of 2 here] |  |  | > 2.5 mg/kg |  |  |
| O=C1c2ccccc2C(=O)N1CC1CC2c3ccccc3Cc3ccccc3N2O1 (stereo not given) | > 1000 nM | > 1000 nM | > 2.5 mg/kg | > 1000 nM |  |
| CN(C)CCCC1CC2c3ccccc3Cc3ccccc3N2O1 (stereo not given) | 18.6 nM | 3.89 nM | > 2.5 mg/kg | 676 nM |  |
| c1ccc2c(c1)CN(CC1CC3c4ccccc4Cc4ccccc4N3O1)C2 (stereo not given) | > 1000 nM | > 1000 nM | > 2.5 mg/kg | > 1000 nM |  |
| CN(C)CC1CC2c3ccccc3Oc3ccc(Cl)cc3N2O1 (stereo not given) | 3.8 nM | 1.91 nM | > 2.5 mg/kg | 102 nM | ED50 (Rattus norvegicus; [12]): > 2.5 mg/kg |
| c1ccc2c(c1)Cc1ccccc1N1OC(CN3CCCC3)CC21 (stereo not given) | 16.2 nM | 25.1 nM | > 2.5 mg/kg | 3.02 nM | ED50 (Rattus norvegicus; [12]): > 2.5 mg/kg |
| CN(C)CC1(C)CC2c3ccccc3Cc3ccccc3N2O1 (stereo in doubt; trans) [listing 2 of 2 here] |  |  | > 2.5 mg/kg |  |  |
| CN(CC1CC2c3ccccc3Cc3ccccc3N2O1)C(=O)C(F)(F)F (stereo not given) | 692 nM | > 1000 nM | > 2.5 mg/kg | > 1000 nM |  |
| CN(C)C(=O)C1CC2c3ccccc3Cc3ccccc3N2O1 (stereo not given) | > 1000 nM | > 1000 nM | > 2.5 mg/kg | > 1000 nM |  |
| c1ccc(N2CCN(CC3CC4c5ccccc5Cc5ccccc5N4O3)CC2)cc1 (stereo not given) | > 1000 nM | > 1000 nM |  | > 1000 nM |  |
| Clc1cccc(N2CCN(CC3CC4c5ccccc5Cc5ccccc5N4O3)CC2)c1 (stereo not given) | > 1000 nM | > 1000 nM | > 2.5 mg/kg | > 1000 nM |  |
| CN(C)CCCCC1CC2c3ccccc3Cc3ccccc3N2O1 (stereo not given) | > 1000 nM | > 1000 nM | > 2.5 mg/kg | > 1000 nM |  |
| CC(C)N(CC1CC2c3ccccc3Cc3ccccc3N2O1)C(C)C (stereo not given) | 324 nM | > 1000 nM | > 2.5 mg/kg | 151 nM |  |
| CCN(CC)CC1CC2c3ccccc3Cc3ccccc3N2O1 (stereo not given) | 14.5 nM | 42.7 nM | 2.5 mg/kg | 13.5 nM |  |
| NCC1CC2c3ccccc3Cc3ccccc3N2O1 (stereo not given) | 5.62 nM | 15.8 nM | > 2.5 mg/kg | 200 nM |  |
| CN(C)CCC1CC2c3ccccc3Cc3ccccc3N2O1 (stereo not given) | 37.2 nM | 91.2 nM | 2.5 mg/kg | 83.2 nM | IC50 [4]: > 1000 nM; IC50 [5]: > 1000 nM; IC50 [7]: > 1000 nM; IC50 [8]: 1910 nM; IC50 [9]: > 1000 nM; IC50 (D(2) dopamine receptor [10]): > 1000 nM; IC50 (D(3) dopamine receptor): > 1000 nM; ED50 (Rattus norvegicus; [12]): 2.5 mg/kg; IC50 (D(2) dopamine receptor [11]): 9550 nM |
| c1ccc2c(c1)Cc1ccccc1N1OC(CN3CCOCC3)CC21 (stereo not given) | > 1000 nM | 141 nM |  | 26.3 nM | ED50 (Rattus norvegicus; [12]): 2.5 mg/kg |
